Like-named read-outs stand apart in the source and are kept apart here.
Tests used:
PC-3 = test: MTS cell viability assay on PC-3 cells; format: cell-based; conditions: Homo sapiens, 48 h; for inhibition at 100 µM: Dox 1 µM, mean ± SEM, NA = no activity, read-out: Percentage (%) of inhibition, PC-3; for IC50: 15-150 µM, mean ± SEM of triplicates
Experimental: (§1) Five tumor human cancer cell lines—cerebral astrocytoma (D-384), grade IV prostatic adenocarcinoma (PC-3), mammary adenocarcinoma (MCF-7), human colon carcinoma (RKO) and lung carcinoma (A-549)—along with one immortalized hamster cell line (CHO K-1) were used. The cells PC-3, MCF-7 and RKO were cultured in RPMI-1640, D-384 on DMEM and CHO K-1 on HAM F-12 medium supplemented with 10% fetal bovine serum (FBS, Invitrogen, Karlsruhe, Germany), 1% antibiotic-antimitotic solution (100 units/mL penicillin G, 100 µg/mL streptomycin, and 0.25 µg/mL amphotericin B, Gibco, Grand Island, NY, USA), and 1% L-glutamine (2 mM, Gibco). The cells were incubated at 37 °C in a 5% CO2 atmosphere. The viable cells were counted using the trypan blue exclusion method in a hemocytometer.
(§2) The MTS (5-[3-(carboxymethoxy)phenyl]-3-(4,5-dimethyl-2-thiazolyl)-2-(4-sulfo- phenyl)-2H-tetrazolium inner salt) cell viability assay was used to assess the inhibitory effects of the extracts on the survival of human cancer cell lines. A total of 3–5 × 10^3 cells/well were seeded into 96-well plates and were allowed to adhere for 24 h. […] Each concentration/assay was performed three times. Dimethyl sulfoxide (DMSO) was used as a negative control at a final concentration of 0.1% v/v, and 1 µM Doxorubicin was used as a positive control. The cells were incubated with the treatments for 48 h, after which 20 µL MTS (5 mg/mL, Aqueous One Solution Reagent, Gibco) was added and further incubated for 4 h at 37 °C. The absorbance was measured at 570 nm. The data obtained with cells treated with DMSO were defined to represent 100% viability.

[1] = DPPH radical scavenging assay; conditions: 30 min, 515 nm
Experimental: The stock solution of the compounds was prepared by dissolving 4 in dimethyl sulfoxide (DMSO) to a concentration of 4 mg/mL. The solution was diluted with methanol until a concentration of 400 µg/mL was obtained and then used immediately.
The experimental procedure was adapted from the literature. Briefly, 100 µL of a 0.2 mM methanol solution of DPPH (2, 2-diphenyl-1-picrylhydrazyl) radical were added to 100 µL of methanolic solutions of 4 prepared as serial two-fold dilutions from the stock solution in 96-well microfilter plates. Standards and edaravone were also prepared in the same concentrations. The mixture was incubated in dark at room temperature for 30 min and the absorbance was read at 515 nm on a Cytation 5 (BioTek) spectrophotometer.
The % DPPH scavenging activity was then calculated by using the following formula:(1) % DPPH scavenging = 100 × [(Asample+DPPH−Asample blank)/(ADPPH−Asolvent)]
The antioxidant activity of the compound was expressed as IC50, which is defined as the concentration that could scavenge 50% of the DPPH free radical. The IC50 values were calculated in GraphPad Prism 7.02 (GraphPad Software, Corp.) The results are given as a mean ± standard deviation (SD) of experiments done in triplicate.

MCF-7 = test: MTS cell viability assay on MCF-7 cells; format: cell-based; conditions: Homo sapiens, MCF7, 48 h, Dox 1 µM, mean ± SEM, NA = no activity, read-out: Percentage (%) of inhibition, MCF-7
Experimental: as §1, §2

HeLa = test: MTS cell viability assay on HeLa cells; format: cell-based; conditions: Homo sapiens, 48 h, Dox 1 µM, mean ± SEM, NA = no activity, read-out: Percentage (%) of inhibition, HeLa
[2] = test system: promastigotes of Leishmania mexicana; test: Leishmanicidal activity, MTT assay on promastigotes; format: cell-based; conditions: for SI (Selectivity Index) = Citotoxic activity/Leishmanicidal activity: CC50 RAW / IC50 L. mexicana; for IC50: Leishmania mexicana
Experimental: The leishmanicidal activity of all compounds was evaluated by measuring promastigotes’ mitochondrial activity using MTT colorimetric assay as described previously. In this study, promastigotes from Leishmania mexicana were used. The species were confirmed by amplifying and sequencing cytochrome b gene. Promastigotes were cultured at 25 °C in Schneider’s Drosophila Medium (Gibco, Invitrogen, Carlsbad, CA, USA) supplemented with 10% fetal bovine serum (Eurobio, Les Ulis, France). The medium was renewed every third day. Parasite density was determined by counting the cells using a Neubauer chamber.
Into each well of a 96-well plate were dispensed 1 × 10^6 parasites/well. A stock solution of the compounds was prepared in DMSO (Sigma Aldrich, Saint Louis, MO, USA), and serial dilutions were added to the parasite suspension, leading to concentrations ranging from 100 to 0.001 µM, keeping the solvent concentration at 0.5%. The final volume was 200 µL for each well and triplicate conditions were carried out. Amphotericin B (Gibco) treatment (1 µM) untreated parasites and DMSO 0.5% were used as positive and negative controls, respectively. After exposure to the compounds for 48 h in culture medium, 20 µL of a solution of 5 mg/mL MTT dissolved in PBS were added to each well. The plate was incubated at 25 °C for 2 h in darkness. The plate was then centrifuged at 4400 rpm for 10 min and the culture medium was then aspirated; 50 µL of DMSO were added into each well to solubilize the formazan crystals and the plate was shaken for 5 min and then it was measured by recording changes in absorbance at 570 nm using a microplate reader Cytation 5 (BioTek) spectrophotometer. A reference wavelength of 630 nm was used as background subtraction. Optical densities were analyzed because the quantity of formazan is directly proportional to the number of viable parasites. Data were analyzed with the statistical software GraphPad Prism 7.02 (GraphPad Software, Corp.).

[3] = read-out: IC50 original values, x.1 (Mean)
[4] = L. mexicana promastigotes, 48 h, MTT, read-out: Leishmanicidal Activity IC50

SMILES	inhibition at 100 µM (PC-3)	IC50 (PC-3)	IC50 [1]	inhibition at 100 µM (MCF-7)	inhibition at 100 µM (HeLa)	SI (Selectivity Index) = Citotoxic activity/Leishmanicidal activity [2]	IC50 [2, 3]	IC50 [2, 4]	melting point
COC(=O)c1ccc(C2[C@@]3(C(=O)N(c4ccccc4)N=C3C)[C@]23C(=O)N(c2ccccc2)N=C3C)cc1 (relative stereo) [4q, (5R*,6R*)-Methyl-4[4,10-dimethyl-2,8-diphenyl-2,3,8,9-tetraazadispiro[4.0.4.1]undeca-3,9-diene-1,7-dione-11-yl]benzoate]	50.5 ± 2.38%	109000 ± 2770 nM	> 300000 nM	32.5 ± 2.33%	31.7 ± 1.52%	14.3	277 nM	280 ± 40 nM	162.5 to 163.9 °C
CSc1ccc(C2[C@]3(C(=O)N(c4ccccc4)N=C3C)[C@@]23C(=O)N(c2ccccc2)N=C3C)cc1 (relative stereo) [4u, (5R*,6R*)-11-(4-Thiomethylphenyl)-4,10-dimethyl-2,8-diphenyl-2,3,8,9-tetraazadispiro[4.0.4.1]undeca-3,9-diene-1,7-dione]	38.7 ± 3.77%	–	> 300000 nM	19.5 ± 2.96%	34.7 ± 2.29%	22.1	417 nM	420 ± 250 nM	154.4 to 157.3 °C
CC1=NN(c2ccccc2)C(=O)[C@@]12C(c1ccccc1[N+](=O)[O-])[C@@]21C(=O)N(c2ccccc2)N=C1C (relative stereo) [4c, (5R*,6R*)-11-(2-Nitrophenyl)-4,10-dimethyl-2,8-diphenyl-2,3,8,9-tetraazadispiro[4.0.4.1]undeca-3,9-diene-1,7-dione]	11 ± 3.5%	–	> 300000 nM	16.7 ± 5.36%	24.8 ± 1.74%	15.3	150 nM	150 ± 40 nM	165.1 to 165.5 °C
COc1ccccc1C1[C@@]2(C(=O)N(c3ccccc3)N=C2C)[C@]12C(=O)N(c1ccccc1)N=C2C (relative stereo) [4f, (5R*,6R*)-11-(2-Methoxyphenyl)-4,10-dimethyl-2,8-diphenyl-2,3,8,9-tetraazadispiro[4.0.4.1]undeca-3,9-diene-1,7-dione]	28.3 ± 2.56%	–	> 300000 nM	–	–	5.7	2230 nM	2230 ± 70 nM	147.8 to 149 °C
CC1=NN(c2ccccc2)C(=O)[C@@]12C(c1cccc([N+](=O)[O-])c1)[C@@]21C(=O)N(c2ccccc2)N=C1C (relative stereo) [4d, (5R*,6R*)-11-(3-Nitrophenyl)-4,10-dimethyl-2,8-diphenyl-2,3,8,9-tetraazadispiro[4.0.4.1]undeca-3,9-diene-1,7-dione]	46.1 ± 1.91%	90900 ± 2560 nM	> 300000 nM	39.4 ± 2.29%	48.6 ± 4.91%	26.0	148 nM	150 ± 20 nM	183.9 to 185 °C
COc1ccc(C2[C@@]3(C(=O)N(c4ccccc4)N=C3C)[C@]23C(=O)N(c2ccccc2)N=C3C)cc1 (relative stereo) [4e, (5R*,6R*)-11-(4-Methoxyphenyl)-4,10-dimethyl-2,8-diphenyl-2,3,8,9-tetraazadispiro[4.0.4.1]undeca-3,9-diene-1,7-dione]	17.9 ± 3.4%	–	> 300000 nM	4.47 ± 3.48%	47.8 ± 2.45%	4.9	1480 nM	1480 ± 250 nM	163.5 to 165.7 °C
CC1=NN(c2ccccc2)C(=O)[C@@]12C(c1ccccc1)[C@@]21C(=O)N(c2ccccc2)N=C1C (relative stereo) [4b, (5R*,6R*)-4,10-Dimethyl-2,8,11-triphenyl-2,3,8,9-tetraazadispiro[4.0.4.1]undeca-3,9-diene-1,7-dione]	17.6 ± 2.83%	–	> 300000 nM	7.87 ± 2.92%	–	21.3	158 nM	160 nM	129 to 130 °C
CC1=NN(c2ccccc2)C(=O)[C@@]12C(c1cccc(F)c1)[C@@]21C(=O)N(c2ccccc2)N=C1C (relative stereo) [4t, (5R*,6R*)-11-(3-Fluorophenyl)-4,10-dimethyl-2,8-diphenyl-2,3,8,9-tetraazadispiro[4.0.4.1]undeca-3,9-diene-1,7-dione]	13.8 ± 2.87%	–	> 300000 nM	31.4 ± 3.65%	5.06 ± 2.43%	12.3	216 nM	220 ± 50 nM	152.1 to 153 °C
CC1=NN(c2ccccc2)C(=O)[C@@]12C(c1ccc(OC(F)(F)F)cc1)[C@@]21C(=O)N(c2ccccc2)N=C1C (relative stereo) [4s, (5R*,6R*)-11-(4-Trifluoromethoxyphenyl)-4,10-dimethyl-2,8-diphenyl-2,3,8,9-tetraazadispiro[4.0.4.1]undeca-3,9-diene-1,7-dione]	49.7 ± 2.11%	70300 ± 1900 nM	> 300000 nM	9.91 ± 3.37%	43.6 ± 1.75%	45.3	189 nM	190 ± 70 nM	150.5 to 151.5 °C
CC1=NN(c2ccccc2)C(=O)[C@@]12C(c1ccc(C(F)(F)F)cc1)[C@@]21C(=O)N(c2ccccc2)N=C1C (relative stereo) [4r, (5R*,6R*)-11-(4-Trifluoromethylphenyl)-4,10-dimethyl-2,8-diphenyl-2,3,8,9-tetraazadispiro[4.0.4.1]undeca-3,9-diene-1,7-dione]	54.7 ± 1.95%	49800 ± 5510 nM	> 300000 nM	45.8 ± 2.11%	50.2 ± 0.52%	34.2	188 nM	190 ± 60 nM	154.6 to 156.5 °C

— PMC8398714, “Synthesis and Evaluation of Biological Activities of Bis(spiropyrazolone)cyclopropanes: A Potential Application against Leishmaniasis” (Molecules, 2021)
